# Source: US20240016788A1, “PHARMACEUTICAL COMPOSITION FOR PREVENTING OR TREATING DIABETIC AND POSTMENOPAUSAL OSTEOPOROSIS, CONTAINING ADIPORON” (PnP Biopharm Co., Ltd., priority 2020, published 2024)
# Legend:
# Format in all cases: in vivo
# [1] = test system: type 2 diabetic db/db mice; test: Immunofluorescence staining and western blot of bone tissue, db/db mice; conditions: adiporon 30 mg/kg/day, 4 weeks
# Description: A leptin receptor-defective type 2 diabetic animal model (db/db mice) and a normal control group (db/m mice) were used, and the experiment was performed by dividing into 4 groups as follows: non-diabetic control group (dm cont, n=8), non-diabetic adiporon treatment group (dm+AdipoR, n=8), diabetic control group (db cont, n=8) and diabetic adiporon treatment group (db+AdipoR, n=8).
# The control group was fed a normal diet, and the adiporon treatment group was fed a diet comprising adiporon (30 mg/kg/day) for 4 weeks from 16 weeks of age. During the experiment, body weight was measured every week, fasting blood glucose was measured using an Accu-Chek meter (Roche Diagnostics, St. Louis, MO) every 2 weeks after blood was collected from the tail vein, and glycated hemoglobin (HbA1c) was measured every 4 weeks using a […] automatic analyzer (Bayer healthcare LLC, IN) after blood was collected from the tail vein. The temperature and humidity of the breeding room were maintained at 20˜25° C. and 50˜60%, respectively, and the lights were turned on and off at 12-hour intervals.
# After removing tissues of the femur and L5 lumbar vertebrae, some of them were fixed in 10% formalin for immunostaining and decalcified. Thereafter, after neutralization with 0.5M Phosphate buffer (pH 7.4), washing, and embedding in paraffin. Tissue sections were cut to a thickness of 5 μm, and hematoxylin and eosin staining (H&E staining), trichrome staining, and Safranin O staining were performed. In bone tissue, double immunofluorescence staining method was performed using anti-adiponectin receptor 1/2 antibody, anti-perilipin-1 antibody, anti-RANKL antibody, anti-TNF-α antibody, and ApopTag Fluorescein In Situ Apoptosis Detection Kit (Chemicon International, Temecula, CA) and expression was observed using a confocal microscope.
# Protein was extracted using Pro-Prep Protein Extraction Solution (Intron Biotechnology, Gyeonggi-Do, Korea), and SDS-PAGE (sodium dodecyl sulfate-polyacrylamide gel electrophoresis) was performed. The separated protein was transferred to a nitrocellulose membrane (Amersham Co., Buckinghamshire, England) and treated with Tris buffered saline (in TBS-T: 0.1% Tween-20 in Tris buffer saline, pH 7.5) containing 3% skim milk. After blocking for an hour, the blots were reacted in adiponectin receptor 1/2, total AMPK, phospho-Thr172AMPK, PGC-1α, Nrf-2, SOD1/2, NQO1, HO-1, NOX4, NF-κB and β-actin primary antibody solution, washing, reacting with a secondary antibody against each primary antibody, and then photosensitizing through ECL (Pierce, Rockford IL) to confirm the band. The expression level of each protein was normalized according to β-actin.
# [2] = test system: type 2 diabetic db/db mice; test: Histological examination (H&E, trichrome, Safranin O) of ilium (femur) and lumbar vertebra 5, db/db mice; conditions: adiporon 30 mg/kg/day, 4 weeks
# Description: A leptin receptor-defective type 2 diabetic animal model (db/db mice) and a normal control group (db/m mice) were used, and the experiment was performed by dividing into 4 groups as follows: non-diabetic control group (dm cont, n=8), non-diabetic adiporon treatment group (dm+AdipoR, n=8), diabetic control group (db cont, n=8) and diabetic adiporon treatment group (db+AdipoR, n=8). The control group was fed a normal diet, and the adiporon treatment group was fed a diet comprising adiporon (30 mg/kg/day) for 4 weeks from 16 weeks of age. During the experiment, body weight was measured every week, fasting blood glucose was measured using an Accu-Chek meter (Roche Diagnostics, St. Louis, MO) every 2 weeks after blood was collected from the tail vein, and glycated hemoglobin (HbA1c) was measured every 4 weeks using a […] automatic analyzer (Bayer healthcare LLC, IN) after blood was collected from the tail vein. The temperature and humidity of the breeding room were maintained at 20˜25° C. and 50˜60%, respectively, and the lights were turned on and off at 12-hour intervals. After removing tissues of the femur and L5 lumbar vertebrae, some of them were fixed in 10% formalin for immunostaining and decalcified. Thereafter, after neutralization with 0.5M Phosphate buffer (pH 7.4), washing, and embedding in paraffin. Tissue sections were cut to a thickness of 5 μm, and hematoxylin and eosin staining (H&E staining), trichrome staining, and Safranin O staining were performed. In bone tissue, double immunofluorescence staining method was performed using anti-adiponectin receptor 1/2 antibody, anti-perilipin-1 antibody, anti-RANKL antibody, anti-TNF-α antibody, and ApopTag Fluorescein In Situ Apoptosis Detection Kit (Chemicon International, Temecula, CA) and expression was observed using a confocal microscope.
# [3] = test system: ovariectomized C57BL/6 mice; test: Serum ACP5/TRAP, osteocalcin and urine deoxypyridinoline by ELISA, ovariectomized mice; conditions: for Increased concentration of deoxypyridinoline in urine: P<0.05
# Description: 7 weeks after ovariectomization or sham surgery of 7-week-old C57BL/6 mice, normal feed group (adiporon non-administered group; control group) administration group, 2.5 mg/kg day or 25 mg/kg day, respectively Feed comprising adiporon was consumed for 6 weeks from 14 weeks of age. Body weight was measured every week during the experiment period, and the experiment was conducted after 6 weeks of administration. In both experiments, blood collected from each mouse was allowed to stand at room temperature for 30 minutes, and then centrifuged at 3000 rpm for 15 minutes to obtain serum. Blood levels of tartrate-resistant acid phosphatase (TRAP/ACP5) and osterocalcin concentration were measured by ELISA. In addition, 8-hydroxy-deoxyguanosine, a DNA damage marker caused by oxidative stress, and isoprostane, a marker of oxidative stress caused by lipid peroxidation caused by free fatty acids, and deoxypyridinoline (DPP), which indicates the function of osteoclasts, were measured in 24-hour urine concentrations by ELISA method.
# [4] = adiporon 2.5 or 25 mg/kg day, dose not distinguished, ELISA
smiles,measurement,setting,value
Cl.O=C(COc1ccc(C(=O)c2ccccc2)cc1)NC1CCN(Cc2ccccc2)CC1 [adiporon],Activation of adiponectin-receptor 1-AMPK,"[1]; ilium (femur), db/db mice",increased
same,Decreased expression of adiponectin-receptor 1/2 (double immunofluorescence staining),"[1]; ilium (femur), db/db mice",restored
same,Expression of PGC1α,"[1]; ilium (femur), db/db mice",increased
same,Expression of adiponectin-receptor 2-PPARα,"[1]; ilium (femur), db/db mice",increased
same,"Expression of antioxidant enzymes (Nrf2, NQO1, HO-1, SOD1, SOD2)","[1]; ilium (femur), db/db mice",normalized
same,"Expression of oxidative stress markers (NOX4, NFkB)","[1]; ilium (femur), db/db mice",normalized
same,Increase in apoptosis (TUNEL staining-positive),"[1]; ilium (femur), db/db mice",restored
same,Increase in inflammatory response (TNF-α),"[1]; ilium (femur), db/db mice",restored
same,Increase of adipocytes (perilipin-1 immunofluorescent staining),"[1]; ilium (femur), db/db mice",restored
same,Increased expression of RANKL,"[1]; ilium (femur), db/db mice",restored
same,Activation of adiponectin-receptor 1-AMPK,"[1]; lumbar vertebrae 5, db/db mice",increased
same,Decreased expression of adiponectin-receptor 1/2 (double immunofluorescence staining),"[1]; lumbar vertebrae 5, db/db mice",reversed
same,Expression of PGC1α,"[1]; lumbar vertebrae 5, db/db mice",increased
same,Expression of adiponectin-receptor 2-PPARα,"[1]; lumbar vertebrae 5, db/db mice",increased
same,"Expression of antioxidant enzymes (Nrf2, NQO1, HO-1, SOD1, SOD2)","[1]; lumbar vertebrae 5, db/db mice",normalized
same,"Expression of oxidative stress markers (NOX4, NFkB)","[1]; lumbar vertebrae 5, db/db mice",normalized
same,Increase in apoptosis (TUNEL staining-positive),"[1]; lumbar vertebrae 5, db/db mice",restored
same,Increase in inflammatory response (TNF-α),"[1]; lumbar vertebrae 5, db/db mice",restored
same,Increase of adipocytes (perilipin-1 immunofluorescent staining),"[1]; lumbar vertebrae 5, db/db mice",restored
same,Increased expression of RANKL,"[1]; lumbar vertebrae 5, db/db mice",restored
same,Decrease in the ilium growth plate (thickness),[2]; ilium (femur),recovered
same,Increase in adipose tissue in tissue,[2]; ilium (femur),recovered
same,Increase in fibrosis in tissue,[2]; ilium (femur),recovered
same,Increase in adipose tissue in tissue,[2]; vertebrae (lumbar vertebrae 5),reversed
same,Increase in fibrosis in tissue,[2]; vertebrae (lumbar vertebrae 5),reversed
same,Increased concentration of deoxypyridinoline in urine,[3]; adiporon 2.5 mg/kg day vs not administered,significantly reduced
same,Increased concentration of deoxypyridinoline in urine,[3]; adiporon 25 mg/kg day vs not administered,significantly reduced
same,Decreased serum osteocalcin concentration,[3]; [4],reversed
same,Serum ACP5/TRAP concentrations,[3]; [4],no such change
